Measured values published in patent US4161520A, “Method of treating hypertension” (priority 1976, dated 1979).

Test system: DOCA Na rat
Assay: Low dose chronic administration in the DOCA Na rat (Example 4, Table IV)
Type: in vivo
Conditions: for Stroke Volume Index, mean value: control 4.82±0.31; for Pulse pressure, mean value: control 62.5±5.3; for Arterial blood pressure, mean value: control 175.0±3.8; for Arterial blood pressure, % Δ / Pulse pressure, % Δ / Stroke Volume Index, % Δ: vs control
Procedure: A test was conducted for antihypertensive activity in the DOCA Na rat utilizing low dose chronic administration.
DOCA Na male rats weighing 170 to 210 grams are used in the test. DOCA Na hypertension is induced by unilateral nephrectomy followed by subcutaneous implantation of a 25 mg. desoxycorticosterone (DOCA) pellet. Animals are placed in individual cages receiving 0.9% sodium chloride solution to drink and rat chow diet ad libitum. Two weeks are allowed to elapse from the time of surgery for development of hypertension, i.e., systolic blood pressure of at least 150 mmHg.
Mean blood pressure and heart rate in the rats dosed at 5 mg/kg/day, 1 mg/kg/day, 0.1 mg/kg/day and as those used as controls are measured directly by placing a polyethylene catheter in a femoral artery and thereafter measuring the blood pressure by a Stathem Pressure Transducer. Control animals and drug dosed subjects are measured side by side. Direct readings were taken when the animal model began to show signs of inherent deterioration.
The experimental results are represented as absolute values. Drug-related alterations in mean blood pressure are expressed as percentage change by comparing control absolute values with drug absolute values. Compounds are considered active when about a 15% or greater reduction in blood pressure is obtained. However, the reduction in blood pressure must show mathematical significance ([…]).
A derivative of the polyether ionophore, laslaocid, i.e., the bromo derivative of lasalocid, was tested in the above screen. The compound was administered in a food admix on a daily basis.

[1] = 0.1 mg/kg/day in food admix, at 24 Days
[2] = 1 mg/kg/day in food admix, at 28 Days
[3] = 5 mg/kg/day in food admix, at 11 Days

## CC[C@@H](C(=O)[C@@H](C)[C@@H](O)[C@H](C)CCc1c(Br)cc(C)c(O)c1C(=O)O)[C@H]1O[C@](CC)([C@H]2CC[C@](O)(CC)[C@H](C)O2)C[C@@H]1C [bromolasalocid]
[1]
  Stroke Volume Index, mean value: 4.03±0.17
  Pulse pressure, mean value: 41.1±7.4
  Arterial blood pressure, mean value: 132.4±16.0
  Arterial blood pressure, % Δ: -24.34%
  Pulse pressure, % Δ: -34.24%
  Stroke Volume Index, % Δ: -16.39%
[2]
  Stroke Volume Index, mean value: 5.86±.31
  Pulse pressure, mean value: 45±3.5
  Arterial blood pressure, mean value: 140.1±16
  Arterial blood pressure, % Δ: -19.94%
  Pulse pressure, % Δ: -28.00%
  Stroke Volume Index, % Δ: 21.58%
[3]
  Stroke Volume Index, mean value: 4.96±0.61
  Pulse pressure, mean value: 47.4±7.3
  Arterial blood pressure, mean value: 140.0±12.6
  Arterial blood pressure, % Δ: -20.00%
  Pulse pressure, % Δ: -24.16%
  Stroke Volume Index, % Δ: 2.90%
Chronic administration
  blood pressure (in words): lowered
  pulse pressure (in words): lowered
  pump performance (in words): competent
  stroke volume index (in words): no significant alteration has occurred
